Like-named read-outs stand apart in the source and are kept apart here.
System: human Ewing's sarcoma TC-71
Type: in vivo
Conditions: for Average body weight change in % per mouse at nadir / Biological interpretation / Drug death / Regressions Complete / Regressions Partial / Tumor free survivors at day 120 / day of nadir / ΔT/ΔC in % (day 21): 16
Protocol: This efficacy may be quantified, for example, as changes in tumor volume for each treated (T) and control (C) group, which are calculated for each animal and each day by subtracting the tumor volume on the day of first treatment (staging day) from the tumor volume on the specified observation day. This allows calculating the tumor growth inhibition: ΔT/ΔC=(median delta T/median delta C)×100. Individual tumor volume changes from baseline are thereafter analyzed by a non-parametric two-way ANOVA-TYPE (with factors: group and repeated days) followed by a post-hoc contrasts analysis, with Bonferroni-Holm adjustment for multiplicity, comparing all treated groups to the control group. […] A probability less than 5% (p<0.05) was considered as significant.
Based on the National Cancer Institute (NCl) standards, a ΔT/ΔC≦40% is the minimal level required to declare activity.
The tumor doubling time (in days; Td) was estimated from the plot of the log linear growth of the control group tumors in exponential growth (100 to 1000 mm^3 range) [T. H. Corbett et al., Cancer, 40: 2660-2680 (1977); F. M. Schabel et al., Cancer Drug Development, Part B, Methods in Cancer Research, 17: 3-51, New York, Academic Press Inc. (1979)].
This efficacy may also be quantified by the number of tumor regressions observed after therapy. Individual mice reporting a tumor volume ≦50% of the Day 0 measurement for two consecutive measurements over a seven day period were considered partial responders (PR). Individual mice lacking palpable tumors (<4×4 mm^2 for two consecutive measurements over a seven day period) were classified as complete responders (CR); a CR that persisted until study completion was considered a tumor-free survivor (TFS).
The animals subjected to the experiment are subcutaneously grafted unilaterally with approximately 30 mg of a tumor fragment on day 0. The animals are implanted with a human tumor xenografted in immunocompromized mice. Several days post tumor implantation, mice are randomized according to their body weight to the different groups of treatments and controls. The animals are observed every day. […] The groups are then weighed once or twice a week until the end of the trial.
The tumors are measured 1 to 5 times a week, depending on the tumor doubling time, until the tumor reaches approximately 1,000 mm^3, or until the animal dies (if this occurs before the tumor reaches 1,000 mm^3). The animals are necropsied immediately after euthanasia or death.
The selected tumor model was a human Ewing's sarcoma TC-71, xenografted in SCID mice [Whang-Peng J, et al. Cancer Genet Cytogenet. 1986 Apr. 1; 21(3):185208].
Treatment solutions were prepared first by mixing 1 volume of ethanolic stock solution and 1 volume of polysorbate 80, then by adding 18 volumes of glucose 5% in water.

[1] = 3.5 mg/kg per injection (total 7.0) IV days 12
[2] = 5.6 mg/kg per injection (total 11.2) IV days 12
[3] = 5.6 mg/kg per injection (total 11.2) IV days 12, listed as CABAZITAXEL
[4] = 9.0 mg/kg per injection (total 18) IV days 12
[5] = 9.0 mg/kg per injection (total 18) IV days 12, listed as CABAZITAXEL
[6] = 14.5 mg/kg per injection (total 29) IV days 12
[7] = 14.5 mg/kg per injection (total 29) IV days 12, listed as CABAZITAXEL
[8] = 3.5 mg/kg per injection (total 7.0) IV days 12, listed as DOCETAXEL
[9] = 3.5 mg/kg per injection (total 7.0) IV days 12, listed as docetaxel
[10] = 9.0 mg/kg per injection (total 18) IV days 12, listed as DOCETAXEL
[11] = 9.0 mg/kg per injection (total 18) IV days 12, listed as docetaxel
[12] = 14.5 mg/kg per injection (total 29) IV days 12, listed as DOCETAXEL

CO[C@H]1C(=O)[C@]2(C)[C@@H](OC)C[C@H]3OC[C@@]3(OC(C)=O)[C@H]2[C@H](OC(=O)c2ccccc2)[C@]2(O)C[C@H](OC(=O)[C@H](O)[C@@H](NC(=O)OC(C)(C)C)c3ccccc3)C(C)=C1C2(C)C [Cabazitaxel, 4α-acetoxy-2α-benzoyloxy-5β,20-epoxy-1β-hydroxy-7β,10β-dimethoxy-9-oxo-11-taxen-13α-yl (2R,3S)-3-tert-butoxycarbonyl-amino-2-hydroxy-3-phenylpropionate]
Average body weight change in % per mouse at nadir [1]: −2.3%
Biological interpretation [1]: active
Drug death [1]: 0/7
Regressions Complete [1]: 0/7
Regressions Partial [1]: 0/7
Tumor free survivors at day 120 [1]: 0/7
day of nadir [1]: 21 days
ΔT/ΔC in % (day 21) [1]: 27%
Biological interpretation (3.5 mg/kg per injection (total 7.0) IV days 12, listed as CABAZITAXEL): Active
Average body weight change in % per mouse at nadir [2]: −7.0%
Drug death [2]: 0/7
Regressions Complete [2]: 0/7
Regressions Partial [2]: 6/7
Tumor free survivors at day 120 [2]: 0/7
day of nadir [2]: 18 days
Biological interpretation [3]: Highly Active
ΔT/ΔC in % (day 21) [3]: <0%
Biological interpretation (5.6 mg/kg per injection (total 11.2) IV days 12, listed as cabazitaxel): highly active
Tumor volume changes from baseline: Median (nMad) (5.6 mg/kg, day 26): −162 (65.2)
Average body weight change in % per mouse at nadir [4]: −7.0%
Drug death [4]: 0/7
Regressions Complete [4]: 6/7
Regressions Partial [4]: 7/7
Tumor free survivors at day 120 [4]: 6/7
day of nadir [4]: 18 days
Biological interpretation [5]: Highly Active
ΔT/ΔC in % (day 21) [5]: <0%
Biological interpretation (9.0 mg/kg per injection (total 18) IV days 12, listed as cabazitaxel): highly active
Tumor volume changes from baseline: Median (nMad) (9 mg/kg, day 26): −196 (51.9)
Tumor volume changes from baseline: Median (nMad) (9 mg/kg, day 28): −196 (50.4)
Tumor volume changes from baseline: Median (nMad) (9 mg/kg, day 30): −196 (50.4)
Tumor volume changes from baseline: Median (nMad) (9 mg/kg, day 34): −196 (72.6)
Average body weight change in % per mouse at nadir [6]: −9.0%
Drug death [6]: 0/7
Regressions Complete [6]: 7/7
Regressions Partial [6]: 7/7
Tumor free survivors at day 120 [6]: 6/7
day of nadir [6]: 23 days
Biological interpretation [7]: Highly Active
ΔT/ΔC in % (day 21) [7]: <0%
Biological interpretation (14.5 mg/kg per injection (total 29) IV days 12, listed as cabazitaxel): highly active
Tumor volume changes from baseline: Median (nMad) (14.5 mg/kg, day 26): −184 (43)
Tumor volume changes from baseline: Median (nMad) (14.5 mg/kg, day 28): −194 (47.4)
Tumor volume changes from baseline: Median (nMad) (14.5 mg/kg, day 30): −198 (53.4)
Tumor volume changes from baseline: Median (nMad) (14.5 mg/kg, day 34): −198 (53.4)
Tumor volume changes from baseline: Median (nMad) (14.5 mg/kg, day 36): −180 (53.4)
Tumor volume changes from baseline: Median (nMad) (14.5 mg/kg, day 40): −180 (53.4)
antitumor activity compared with docetaxel (conclusion of example 2): more active than docetaxel

CC(=O)O[C@@]12CO[C@@H]1C[C@H](O)[C@@]1(C)C(=O)[C@H](O)C3=C(C)[C@@H](OC(=O)[C@H](O)[C@@H](NC(=O)OC(C)(C)C)c4ccccc4)C[C@@](O)([C@@H](OC(=O)c4ccccc4)[C@H]21)C3(C)C [Docetaxel, docetaxel]
Average body weight change in % per mouse at nadir [1]: −1.8%
Drug death [1]: 0/7
Regressions Complete [1]: 0/7
Regressions Partial [1]: 0/7
Tumor free survivors at day 120 [1]: 0/7
day of nadir [1]: 13 days
Biological interpretation [8]: Inactive
ΔT/ΔC in % (day 21) [8]: 77%
Biological interpretation [9]: inactive
ΔT/ΔC in % (day 21) [9]: > 40%
Tumor volume changes from baseline: Median (nMad) (3.5 mg/kg, day 19): 629
Tumor volume changes from baseline: Median (nMad) (3.5 mg/kg, day 21): 1044
Average body weight change in % per mouse at nadir [2]: −13.7%
Drug death [2]: 0/7
Regressions Complete [2]: 0/7
Regressions Partial [2]: 0/7
Tumor free survivors at day 120 [2]: 0/7
day of nadir [2]: 22 days
ΔT/ΔC in % (day 21) [2]: 31%
Biological interpretation (5.6 mg/kg per injection (total 11.2) IV days 12, listed as DOCETAXEL): Active
Biological interpretation (5.6 mg/kg per injection (total 11.2) IV days 12, listed as docetaxel): active
Tumor volume changes from baseline: Median (nMad) (5.6 mg/kg, day 19): 371
Tumor volume changes from baseline: Median (nMad) (5.6 mg/kg, day 21): 416
Tumor volume changes from baseline: Median (nMad) (5.6 mg/kg, day 26): 1022.5
Average body weight change in % per mouse at nadir [4]: −10.8%
Drug death [4]: 0/7
Regressions Complete [4]: 0/7
Tumor free survivors at day 120 [4]: 0/7
day of nadir [4]: 23 days
Biological interpretation [10]: Highly Active
Regressions Partial [10]: 2/7
ΔT/ΔC in % (day 21) [10]: <0%
Biological interpretation [11]: highly active
Regressions Partial [11]: 5/7
Tumor volume changes from baseline: Median (nMad) (9 mg/kg, day 19): 139
Tumor volume changes from baseline: Median (nMad) (9 mg/kg, day 21): −36
Tumor volume changes from baseline: Median (nMad) (9 mg/kg, day 26): 158
Tumor volume changes from baseline: Median (nMad) (9 mg/kg, day 30): 406 (252)
Tumor volume changes from baseline: Median (nMad) (9 mg/kg, day 34): 867 (209)
Average body weight change in % per mouse at nadir [6]: −12.4%
Drug death [6]: 0/7
Regressions Complete [6]: 2/7
Regressions Partial [6]: 6/7
Tumor free survivors at day 120 [6]: 1/7
day of nadir [6]: 23 days
Biological interpretation [12]: Highly Active
ΔT/ΔC in % (day 21) [12]: <0%
Biological interpretation (14.5 mg/kg per injection (total 29) IV days 12, listed as docetaxel): highly active
Tumor volume changes from baseline: Median (nMad) (14.5 mg/kg, day 16): 154
Tumor volume changes from baseline: Median (nMad) (14.5 mg/kg, day 19): −72
Tumor volume changes from baseline: Median (nMad) (14.5 mg/kg, day 21): −130
Tumor volume changes from baseline: Median (nMad) (14.5 mg/kg, day 26): −130
Tumor volume changes from baseline: Median (nMad) (14.5 mg/kg, day 28): −144
Tumor volume changes from baseline: Median (nMad) (14.5 mg/kg, day 30): −126
Tumor volume changes from baseline: Median (nMad) (14.5 mg/kg, day 34): −49
Tumor volume changes from baseline: Median (nMad) (14.5 mg/kg, day 36): 75 (330.6)
Tumor volume changes from baseline: Median (nMad) (14.5 mg/kg, day 40): 763

Source: patent publication US20140350273A1, “PEDIATRIC USES OF CABAZITAXEL” (AVENTIS PHARMA S.A., priority 2012, published 2014)
